Experimental data from patent US8945825B2, “Homogeneous activity test for determining enzymatic reactions” (Siemens Healthcare Diagnostics Products GmbH, priority 2010, dated 2015).

Assays:
tc-FSAP = molecular target: T1, tc-FSAP (Homo sapiens, UniProt Q14520); assay: tc-FSAP inhibition assay (LOCI signal, peptide substrate IV); format: biochemical; settings: for signal: measured value after 15 minutes
T1 construct: directed against the light chain of FSAP; Two-chain FSAP (tc-FSAP) was prepared, as described by Kannemeier et al; made in house
T1 sequence (Q14520 314-560 limits assumed): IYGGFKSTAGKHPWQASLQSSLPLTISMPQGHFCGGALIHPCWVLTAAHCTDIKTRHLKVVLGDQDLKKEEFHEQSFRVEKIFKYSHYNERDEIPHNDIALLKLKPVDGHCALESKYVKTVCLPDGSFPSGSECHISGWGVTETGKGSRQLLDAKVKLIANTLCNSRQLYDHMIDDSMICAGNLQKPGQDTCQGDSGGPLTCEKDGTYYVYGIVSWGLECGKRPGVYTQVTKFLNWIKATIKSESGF
T1 sequence (Q14520 24-313 partner limits assumed): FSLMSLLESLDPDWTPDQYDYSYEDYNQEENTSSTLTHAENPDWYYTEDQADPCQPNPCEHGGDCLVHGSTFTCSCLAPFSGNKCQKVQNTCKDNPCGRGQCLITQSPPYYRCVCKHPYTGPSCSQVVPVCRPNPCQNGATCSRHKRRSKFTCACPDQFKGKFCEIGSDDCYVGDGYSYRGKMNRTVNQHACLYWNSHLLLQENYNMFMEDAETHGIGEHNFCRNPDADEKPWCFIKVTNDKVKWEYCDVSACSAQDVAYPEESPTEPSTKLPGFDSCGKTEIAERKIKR
Protocol: The kinetics of enzyme-inhibitor interaction was investigated by measuring enzyme activity as a function of the amount of inhibitor. In the tc-FSAP inhibition assays, constant amounts of enzyme (tc-FSAP, μg/mL) were preincubated with variable inhibitor concentrations (aprotinin from bovine lung, Fluka), to enable formation of the enzyme-inhibitor complex. Another assay was carried out without preincubation. The remaining protease activity was determined after adding the peptide substrate, as described in example 1.
120 μL test buffer pH 6.3, 10 μL anti-FSAP Chemibeads (200 μg/mL in test buffer), 10 μL purified tc-FSAP (10 μg/mL) and 10 μL test buffer with 0, 4.7 and 47.2 U/mL aprotinin were mixed in DIMENSION VISTA® LOCI® reaction cuvettes. Addition of 10 μL of biotinylated peptide substrate IV in test buffer and 10 μL Sensibeads (400 μg/mL in test buffer) took place without preincubation or after 10 minutes of preincubation at 37° C. The resultant LOCI® signal was measured kinetically, over a period of 15 minutes at 37° C., in a commercially available DIMENSION VISTA® LOCI® measuring unit (Siemens Healthcare Diagnostics Products GmbH) with 200 ms illumination at 680 nm and 1000 ms measuring time at 612 nm.
Another inhibitor used was a monoclonal antibody that inhibits FSAP activity (Siemens Healthcare Diagnostics Products GmbH, MAk No. 1102/570), which is directed against the light chain of FSAP and is formed by the hybridoma cell line DSM ACC2533 (see EP-A2-1334983), similarly to the assay with aprotinin.

FSAP in plasma = molecular target: T2, FSAP in plasma (Homo sapiens, UniProt Q14520); assay: Activation of FSAP in citrate plasma with dextran sulfate as cofactor, LOCI signal; format: biochemical; settings: Test buffer with DXS 20 μg/mL
T2 construct: from tissue; host or cells: citrate plasma
T2 sequence (Q14520 24-313): as the sequence (Q14520 24-313 partner limits assumed) above
T2 sequence (Q14520 314-560): as the sequence (Q14520 314-560 limits assumed) above
Protocol: Activation in the presence of dextran sulfate leads to a different signal height and signal dynamics versus the same sample, with the same FSAP concentration, but without activation by dextran sulfate (Table 4 and FIG. 2). The signal height produced by activation of the FSAP roughly corresponds to the signal of a purified tc-FSAP of equal concentration of 12 μg/mL with an enzyme activity of 1 PEU/mL (not shown).

aprotinin was tested, and the signal (tc-FSAP; Aprotinin 4.7 U/mL, with 10 min preincubation) was 15.03 kcounts, the signal (tc-FSAP; Aprotinin 4.7 U/mL, without preincubation) was 71.18 kcounts and the signal (tc-FSAP; Aprotinin 47.3 U/mL, with 10 min preincubation) was 11.77 kcounts. For the same substance, the signal (tc-FSAP; Aprotinin 47.3 U/mL, without preincubation) was 67.8 kcounts and the “Effect on LOCI signal of tc-FSAP (in words)” value (tc-FSAP; mainly after preincubation with tc-FSAP) was “strong signal-reducing effect”.

dextran sulfate sodium salt [DXS] gave a signal (FSAP in plasma; MW ≧ 500 kDa, peptide 10 μg/mL, incubation time 5 at +37° C.) of 50.303 kcounts, a signal (FSAP in plasma; MW ≧ 500 kDa, peptide 10 μg/mL, incubation time 10 at +37° C.) of 106.500 kcounts and a signal (FSAP in plasma; MW ≧ 500 kDa, peptide 10 μg/mL, incubation time 15 at +37° C.) of 118.096 kcounts. It also gave a signal (FSAP in plasma; peptide 0 μg/mL, incubation time 5 at +37° C.) of 1.166 kcounts, a signal (FSAP in plasma; peptide 0 μg/mL, incubation time 10 at +37° C.) of 1.220 kcounts and a signal (FSAP in plasma; peptide 0 μg/mL, incubation time 15 at +37° C.) of 1.204 kcounts.
